A word on the IC50: it is the concentration needed to halve the response being measured.

One experiment has as its target T1, human neutrophil elastase (HNE) (Homo sapiens, UniProt P08246).
T1 construct: purchased SERVA Electrophoresis GmbH, Heidelberg, Germany #20927.01
T1 sequence (P08246 30-267): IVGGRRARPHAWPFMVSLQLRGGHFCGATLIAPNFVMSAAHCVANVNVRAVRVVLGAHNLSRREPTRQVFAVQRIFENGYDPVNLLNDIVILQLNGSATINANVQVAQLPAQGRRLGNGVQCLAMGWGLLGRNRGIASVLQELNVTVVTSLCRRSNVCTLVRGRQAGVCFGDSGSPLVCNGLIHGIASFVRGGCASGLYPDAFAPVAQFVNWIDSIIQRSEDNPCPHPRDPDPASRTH
The experiment is described as follows: In vitro inhibition of HNE using a fluorogenic peptide substrate (Example I-A). Conditions: substrate MeOSuc-Ala-Ala-Pro-Val-AMC, continuous read-out, 384 MTP format. The format is biochemical. The method, then: The test solution is prepared by mixing 10 μl of test compound dilution, 20 μl of HNE enzyme dilution (final concentration 8-0.4 μU/ml, routinely 2.1 μU/ml) and 20 μl of substrate dilution (final concentration 1 mM-1 μM, routinely 20 μM), respectively. The solution is incubated for 0-2 hrs at 37° C. (routinely one hour). The fluorescence of the liberated AMC due to the enzymatic reaction is measured at 37° C. (TECAN spectra fluor plus plate reader). […] IC50 values are determined by RFU-versus-[I] plots. Km and Km(app.) values are determined by Lineweaver-Burk plots and converted to K1 values by Dixon plots.
For `COC(=O)c1cccc(CN2C(=O)N(c3cccc(C(F)(F)F)c3)C(C)=C(C(C)=O)C2c2ccc(C#N)cc2)c1` (stereo not shown) [Example 1, Methyl 3-{[5-acetyl-6-(4-cyanophenyl)-4-methyl-2-oxo-3-[3-(trifluoromethyl-)phenyl]-3,6-dihydropyrimidin-1(2H)-yl]methyl}benzoate], the IC50 was 30 nM.
The same measure, in the same setting: the same measure for `CC1=C(C#N)C(c2ccc(C#N)nc2)NC(=O)N1c1cccc(C(F)(F)F)c1` (stereo not shown) [Example 19A, 4-(6-Cyanopyridin-3-yl)-6-methyl-2-oxo-1-[3-(trifluoromethyl)phenyl]-1,2,3-,4-tetrahydro-pyrimidine-5-carbonitrile]: 70 nM; for `CC(=O)C1=C(C)N(c2cccc(C(F)(F)F)c2)C(=O)N(Cc2ccc(C(CC(C)C)C(=O)O)cc2)C1c1ccc(C#N)cc1` (stereo not shown) [Example 19]: 20 nM; for `CC1=C(C(=O)c2cccnc2)C(c2ccc(C#N)cc2)NC(=O)N1c1cccc(C(F)(F)F)c1` (stereo not shown) [Example 21A, 4-{6-Methyl-2-oxo-5-(pyridin-3-ylcarbonyl)-1-[3-(trifluoromethyl)phenyl]-1-,2,3,4-tetrahydro-pyrimidin-4-yl}benzonitrile]: 60 nM.
Still for that read-out and setting: the same measure for `CC(=O)C1=C(C)N(c2cccc(C(F)(F)F)c2)C(=O)N(Cc2ccc(C(=O)O)cc2)[C@@H]1c1ccc(C#N)cc1` [Example 22]: 8 nM; for `CC(=O)C1=C(C)N(c2cccc(C(F)(F)F)c2)C(=O)N(/C=C/C(=O)O)C1c1ccc(C#N)cc1` (stereo not shown) [Example 24]: 10 nM; for `CC1=C(C(=O)c2ccco2)C(c2ccc(C#N)cc2)N(CC(=O)O)C(=O)N1c1cccc(C(F)(F)F)c1` (stereo not shown) [Example 29A, [6-(4-Cyanophenyl)-5-(2-furoyl)-4-methyl-2-oxo-3-[3-(trifluoromethyl)pheny-l]-3,6-dihydropyrimidin-1(2H)-yl]acetic acid]: 20 nM.
`CC1=C(C(=O)c2cccnc2)C(c2ccc(C#N)cc2)N(CC(=O)O)C(=O)N1c1cccc(C(F)(F)F)c1` (stereo not shown) [Example 31A, [6-(4-Cyanophenyl)-4-methyl-2-oxo-5-(pyridin-3-ylcarbonyl)-3-[3-(trifluoro-methyl)phenyl]-3,6-dihydropyrimidin-1(2H)-yl]acetic acid]: the IC50 was found to be 10 nM.
For `CC1=C(C(=O)O)C(c2ccc(C#N)cc2)N(Cc2cccc(/C=C/C(=O)O)c2)C(=O)N1c1cccc(C(F)(F)F)c1` (stereo not shown) [Example 39, 3-{3-[(E)-2-Carboxyvinyl]benzyl}-4-(4-cyanophenyl)-6-methyl-2-oxo-1-[3-(trifluoromethyl)-phenyl]-1,2,3,4-tetrahydropyrimidine-5-carboxylic acid], the IC50 was determined as 120 nM.
On to `CC1=C(C(=O)c2ccco2)C(c2ccc(C#N)cc2)N(Cc2cccc(C(=O)O)c2)C(=O)N1c1cccc(C(F)(F)F)c1` (stereo not shown) [Example 44], for which the IC50 was 30 nM.
On the same count and under the same terms, the same measure for `CC1=C(C(=O)c2cccnc2)C(c2ccc(C#N)cc2)N(CC(=O)NS(=O)(=O)CC(F)(F)F)C(=O)N1c1cccc(C(F)(F)F)c1` (stereo not shown) [Example 55, 2-[6-(4-Cyanophenyl)-4-methyl-2-oxo-5-(pyridin-3-ylcarbonyl)-3-[3-(trifluoromethyl)phenyl]-3,6-dihydropyrimidin-1(2H)-yl]-N-[(2,2,2-trifluoroethyl)sulfonyl]acetamide]: 20 nM; for `C=CCOC(=O)C1=C(C)N(c2cccc(C(F)(F)F)c2)C(=O)N(C2(C(=O)OCC)CC2)C1c1ccc(C#N)cc1` (stereo not shown) [Example 61]: 130 nM.
Still for that read-out and setting: the same measure for `C=CCOC(=O)C1=C(C)N(c2cccc(C(F)(F)F)c2)C(=O)N(CC(=O)NS(=O)(=O)c2ccc(C(F)(F)F)cc2)C1c1ccc(C#N)cc1` (stereo not shown) [Example 67]: 70 nM; for `CC(=O)C1=C(C)N(c2cccc(C(F)(F)F)c2)C(=O)N(CC(=O)NS(=O)(=O)c2ccc(C#N)cc2)[C@@H]1c1ccc(C#N)cc1` [Example 74]: 10 nM.

The next experiment relates to human polymorphonuclear cells (PMNs). The experiment is described as follows: In vitro PMN elastolysis assay (Example II-A). The format is cell-based. Conditions: at 1.2 μM; mean±s.e.m.; n=3 different donors at 3.6×10^5 cells per well. On the procedure:
This assay is used to determine the elastolytic potential of human polymorphonuclear cells (PMNs) and assess the proportion of degradation due to neutrophil elastase [cf. Z. W. She et al., Am. J. Respir. Cell. Mol. Biol. 9386-392 (1993)].
Tritiated elastin, in suspension, is coated on to a 96 well plate at 10 μg per well. Test and reference [ZD-0892 (J. Med. Chem. 40, 1876-1885, 3173-3181 (1997), WO 95/21855) and α1 protease inhibitor (α1PI)] compounds are added to the wells at the appropriate concentrations. Human PMNs are separated from peripheral venous blood of healthy donors and resuspended in culture media. The neutrophils are added to the coated wells at concentrations ranging between […] cells per well. Porcine pancreatic elastase (1.3 μM) is used as a positive control for the assay, and α1PI (1.2 μM) is used as the positive inhibitor of neutrophil elastase. The cellular control is PMNs without compound at each appropriate cell density. The cells plus compounds are incubated in a humidified incubator at 37° C. for 4 hours. The plates are centrifuged to allow the harvest of cell supernatant only. The supernatant is transferred in 75 μl volumes to corresponding wells of a 96 well Lumaplate™ (solid scintillant containing plates). The plates are dried until no liquid is visible in the wells and read in a beta counter for 3 minutes per well. […]
“α1PI: α1 protease inhibitor, used as the positive inhibitor of neutrophil elastase”: the “inhibition of 3H-elastin elastolysis” value is 83.46±3.97%.

The same experiment, now with this note: mean±s.e.m.; n=2 different donors at 3.6×10^5 cells per well.
The molecule `COc1ccc(C(=O)N[C@H](C(=O)N2CCC[C@H]2C(=O)N[C@H](C(=O)C(F)(F)F)C(C)C)C(C)C)cc1` [ZD-0892] gave an IC50 of 45.5 ± 7.75 nM.

(Values after US8343987B2, “Heterocyclic derivatives” (Bayer Intellectual Property GmbH, priority 2004, dated 2013).)
